#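 Compound exposure: 48 hours, 5 concentrations, 96-well plates. Abbreviation: GI50, concentration required for 50% inhibition of growth.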 Active and inactive are the calls of the source. Cut-off read from the data, not from the text of the source: active = GI50 up to about 1.1 µM and inactive = higher.
# Assays:
# Test in all cases: NCI anticancer screen, dose series, 48 h
# NCI-H522 = system: NCI-H522
# IGROV-1 = system: IGROV-1
# NCI/ADR-RES = system: NCI/ADR-RES
# NCI-H226 = system: NCI-H226
# ACHN = system: ACHN
# HCT-116 = system: HCT-116
# LOX IMVI = system: LOX IMVI
# RPMI-8226 = system: RPMI-8226
# CAKI-1 = system: CAKI-1
# MDA-N = system: MDA-N
# A498 = system: A498
# MCF7 = system: MCF7
# RXF 393 = system: RXF 393
# NCI-H23 = system: NCI-H23
# SNB-75 = system: SNB-75
# PC-3 = system: PC-3
# HOP-92 = system: HOP-92
# SK-MEL-28 = system: SK-MEL-28
# 786-0 = system: 786-0
# SF-539 = system: SF-539
# SN12C = system: SN12C
# M14 = system: M14
# T47D = system: T47D
# COLO 205 = system: COLO 205
# Hs-578T = system: Hs-578T
# U-251 = system: U-251
# MOLT-4 = system: MOLT-4
# SF-295 = system: SF-295
# SK-MEL-2 = system: SK-MEL-2
# HCT-15 = system: HCT-15
# HCC 2998 = system: HCC 2998
# SK-MEL-5 = system: SK-MEL-5
# OVCAR-4 = system: OVCAR-4
# SF-268 = system: SF-268
# SNB-19 = system: SNB-19
# TK-10 = system: TK-10
# OVCAR-8 = system: OVCAR-8
# MDA-MB-231 = system: MDA-MB-231
# HT-29 = system: HT-29
# HL-60 = system: HL-60
# OVCAR-3 = system: OVCAR-3
# CCRF-CEM = system: CCRF-CEM
# NCI-H460 = system: NCI-H460
# K562 = system: K562
# UO-31 = system: UO-31
# A549 = system: A549
# BT-549 = system: BT-549
# UACC-257 = system: UACC-257
# OVCAR-5 = system: OVCAR-5
# UACC-62 = system: UACC-62
# DU-145 = system: DU-145
# SR = system: SR
# MDA-MB-435 = system: MDA-MB-435
# KM12 = system: KM12
# Malme-3M = system: Malme-3M
# HOP-62 = system: HOP-62
# SW-620 = system: SW-620
# SK-OV-3 = system: SK-OV-3
# EKVX = system: EKVX
structure (smiles),measurement,setting,value
CC(=O)OCC1OC(n2c3c(cc(C#N)c2=S)CCCCC3)C(OC(C)=O)C(OC(C)=O)C1OC(C)=O (configuration not stated),GI50,NCI-H522,> 100 µM (inactive)
same,GI50,IGROV-1,> 100 µM (inactive)
same,GI50,NCI/ADR-RES,> 100 µM (inactive)
same,GI50,NCI-H226,> 100 µM (inactive)
same,GI50,ACHN,> 100 µM (inactive)
same,GI50,HCT-116,> 100 µM (inactive)
same,GI50,LOX IMVI,> 100 µM (inactive)
same,GI50,RPMI-8226,> 100 µM (inactive)
same,GI50,CAKI-1,> 100 µM (inactive)
same,GI50,MDA-N,> 100 µM (inactive)
same,GI50,A498,> 100 µM (inactive)
same,GI50,MCF7,> 100 µM (inactive)
same,GI50,RXF 393,> 100 µM (inactive)
same,GI50,NCI-H23,> 100 µM (inactive)
same,GI50,SNB-75,99.1 µM (inactive)
same,GI50,PC-3,> 100 µM (inactive)
same,GI50,HOP-92,> 100 µM (inactive)
same,GI50,SK-MEL-28,> 100 µM (inactive)
same,GI50,786-0,> 100 µM (inactive)
same,GI50,SF-539,> 100 µM (inactive)
same,GI50,SN12C,> 100 µM (inactive)
same,GI50,M14,> 100 µM (inactive)
same,GI50,T47D,29.4 µM (inactive)
same,GI50,COLO 205,> 100 µM (inactive)
same,GI50,Hs-578T,> 100 µM (inactive)
same,GI50,U-251,> 100 µM (inactive)
same,GI50,MOLT-4,> 100 µM (inactive)
same,GI50,SF-295,> 100 µM (inactive)
same,GI50,SK-MEL-2,> 100 µM (inactive)
same,GI50,HCT-15,> 100 µM
same,GI50,HCC 2998,> 100 µM (inactive)
same,GI50,SK-MEL-5,> 100 µM (inactive)
same,GI50,OVCAR-4,> 100 µM (inactive)
same,GI50,SF-268,> 100 µM (inactive)
same,GI50,SNB-19,> 100 µM (inactive)
same,GI50,TK-10,> 100 µM (inactive)
same,GI50,OVCAR-8,> 100 µM (inactive)
same,GI50,MDA-MB-231,> 100 µM (inactive)
same,GI50,HT-29,> 100 µM (inactive)
same,GI50,HL-60,> 100 µM (inactive)
same,GI50,OVCAR-3,> 100 µM (inactive)
same,GI50,CCRF-CEM,> 100 µM (inactive)
same,GI50,NCI-H460,> 100 µM (inactive)
same,GI50,K562,> 100 µM (inactive)
same,GI50,UO-31,> 100 µM (inactive)
same,GI50,A549,> 100 µM (inactive)
same,GI50,BT-549,> 100 µM (inactive)
same,GI50,UACC-257,> 100 µM (inactive)
same,GI50,OVCAR-5,> 100 µM (inactive)
same,GI50,UACC-62,93.8 µM (inactive)
same,GI50,DU-145,> 100 µM (inactive)
same,GI50,SR,> 100 µM (inactive)
same,GI50,MDA-MB-435,> 100 µM (inactive)
same,GI50,KM12,> 100 µM (inactive)
same,GI50,Malme-3M,> 100 µM (inactive)
same,GI50,HOP-62,> 100 µM (inactive)
COC(=O)C1=NN2c3ccccc3C(=O)OCCC2(C)C1 (configuration not stated),GI50,NCI-H522,> 100 µM (inactive)
same,GI50,IGROV-1,> 100 µM (inactive)
same,GI50,NCI/ADR-RES,> 100 µM (inactive)
same,GI50,NCI-H226,> 100 µM (inactive)
same,GI50,ACHN,> 100 µM (inactive)
same,GI50,HCT-116,> 100 µM (inactive)
same,GI50,LOX IMVI,> 100 µM (inactive)
same,GI50,RPMI-8226,> 100 µM (inactive)
same,GI50,CAKI-1,> 100 µM (inactive)
same,GI50,MDA-N,> 100 µM (inactive)
same,GI50,A498,> 100 µM (inactive)
same,GI50,MCF7,> 100 µM (inactive)
same,GI50,RXF 393,> 100 µM (inactive)
same,GI50,NCI-H23,> 100 µM (inactive)
same,GI50,SNB-75,> 100 µM (inactive)
same,GI50,PC-3,> 100 µM (inactive)
same,GI50,HOP-92,> 100 µM (inactive)
same,GI50,SK-MEL-28,> 100 µM (inactive)
same,GI50,SW-620,> 100 µM (inactive)
same,GI50,786-0,> 100 µM (inactive)
same,GI50,SF-539,> 100 µM (inactive)
same,GI50,SN12C,> 100 µM (inactive)
same,GI50,T47D,> 100 µM (inactive)
same,GI50,COLO 205,> 100 µM (inactive)
same,GI50,Hs-578T,> 100 µM (inactive)
same,GI50,U-251,> 100 µM (inactive)
same,GI50,MOLT-4,> 100 µM (inactive)
same,GI50,SF-295,> 100 µM (inactive)
same,GI50,SK-OV-3,> 100 µM (inactive)
same,GI50,SK-MEL-2,> 100 µM (inactive)
same,GI50,HCT-15,> 100 µM
same,GI50,HCC 2998,> 100 µM (inactive)
same,GI50,SK-MEL-5,> 100 µM (inactive)
same,GI50,OVCAR-4,> 100 µM (inactive)
same,GI50,SF-268,> 100 µM (inactive)
same,GI50,TK-10,> 100 µM (inactive)
same,GI50,OVCAR-8,> 100 µM (inactive)
same,GI50,MDA-MB-231,> 100 µM (inactive)
same,GI50,HT-29,> 100 µM (inactive)
same,GI50,HL-60,> 100 µM (inactive)
same,GI50,OVCAR-3,> 100 µM (inactive)
same,GI50,CCRF-CEM,> 100 µM (inactive)
same,GI50,NCI-H460,68.2 µM (inactive)
same,GI50,K562,> 100 µM (inactive)
same,GI50,UO-31,> 100 µM (inactive)
same,GI50,A549,> 100 µM (inactive)
same,GI50,BT-549,> 100 µM (inactive)
same,GI50,OVCAR-5,> 100 µM (inactive)
same,GI50,UACC-62,> 100 µM (inactive)
same,GI50,DU-145,> 100 µM (inactive)
same,GI50,SR,> 100 µM (inactive)
same,GI50,MDA-MB-435,> 100 µM (inactive)
same,GI50,KM12,> 100 µM (inactive)
same,GI50,Malme-3M,> 100 µM (inactive)
same,GI50,HOP-62,> 100 µM (inactive)
same,GI50,EKVX,> 100 µM (inactive)
COC(=O)c1ccccc1/C=C1\Cc2ccc3ccccc3c2C1C (configuration not stated),GI50,NCI-H522,16.6 µM (inactive)
same,GI50,IGROV-1,> 100 µM (inactive)
same,GI50,NCI/ADR-RES,36 µM (inactive)
same,GI50,NCI-H226,> 100 µM (inactive)
same,GI50,ACHN,> 100 µM (inactive)
same,GI50,HCT-116,8.09 µM (inactive)
same,GI50,LOX IMVI,> 100 µM (inactive)
same,GI50,RPMI-8226,37 µM (inactive)
same,GI50,CAKI-1,> 100 µM (inactive)
same,GI50,MDA-N,43.6 µM (inactive)
same,GI50,A498,> 100 µM (inactive)
same,GI50,MCF7,50.4 µM (inactive)
same,GI50,RXF 393,39.2 µM (inactive)
same,GI50,SNB-75,72.4 µM (inactive)
same,GI50,PC-3,60.7 µM (inactive)
same,GI50,HOP-92,67.9 µM (inactive)
same,GI50,SK-MEL-28,> 100 µM (inactive)
same,GI50,SW-620,93.3 µM (inactive)
same,GI50,786-0,81.5 µM (inactive)
same,GI50,SF-539,> 100 µM (inactive)
same,GI50,SN12C,98.9 µM (inactive)
same,GI50,M14,37.4 µM (inactive)
same,GI50,T47D,17.4 µM (inactive)
same,GI50,COLO 205,60.1 µM (inactive)
same,GI50,Hs-578T,34.6 µM (inactive)
same,GI50,U-251,> 100 µM (inactive)
same,GI50,MOLT-4,27.2 µM (inactive)
same,GI50,SF-295,70.8 µM (inactive)
same,GI50,SK-MEL-2,> 100 µM (inactive)
same,GI50,HCT-15,58.5 µM
same,GI50,HCC 2998,> 100 µM (inactive)
same,GI50,SK-MEL-5,20.9 µM (inactive)
same,GI50,OVCAR-4,45.6 µM (inactive)
same,GI50,SF-268,> 100 µM (inactive)
same,GI50,SNB-19,> 100 µM (inactive)
same,GI50,TK-10,> 100 µM (inactive)
same,GI50,OVCAR-8,> 100 µM (inactive)
same,GI50,MDA-MB-231,> 100 µM (inactive)
same,GI50,HL-60,24.1 µM (inactive)
same,GI50,OVCAR-3,25.6 µM (inactive)
same,GI50,CCRF-CEM,45.8 µM (inactive)
same,GI50,NCI-H460,> 100 µM (inactive)
same,GI50,K562,37.6 µM (inactive)
same,GI50,UO-31,42.1 µM (inactive)
same,GI50,A549,51.3 µM (inactive)
same,GI50,BT-549,51.8 µM (inactive)
same,GI50,UACC-257,48.9 µM (inactive)
same,GI50,OVCAR-5,13.2 µM (inactive)
same,GI50,UACC-62,57 µM (inactive)
same,GI50,DU-145,> 100 µM (inactive)
same,GI50,SR,32.7 µM (inactive)
same,GI50,MDA-MB-435,45.7 µM (inactive)
same,GI50,KM12,41.4 µM (inactive)
same,GI50,Malme-3M,53.7 µM (inactive)
same,GI50,EKVX,37.7 µM (inactive)

# Source: ChEMBL document CHEMBL1201862, “PubChem BioAssay data set” (2004)
